#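 Exposure lasted 48 hours, with cells grown in 96-well plates and compounds tested at five concentrations. Definition used: TGI = concentration required for complete inhibition of growth.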
# Tests used:
# Assay in all cases: growth of human tumour cells (NCI), 48 h
# CCRF-CEM leukemia = test system: CCRF-CEM leukemia
# SK-MEL-28 melanoma = test system: SK-MEL-28 melanoma
# OVCAR-8 ovarian = test system: OVCAR-8 ovarian
# MDA-MB-435 = test system: MDA-MB-435
# SR leukemia = test system: SR leukemia
# OVCAR-5 ovarian = test system: OVCAR-5 ovarian
# KM12 colon = test system: KM12 colon
# HT29 colon = test system: HT29 colon
# UO-31 renal = test system: UO-31 renal
# A549 NSCLC = test system: A549 NSCLC
# SK-OV-3 ovarian = test system: SK-OV-3 ovarian
# 786-0 renal = test system: 786-0 renal
# PC-3 prostate = test system: PC-3 prostate
# NCI-H460 lung = test system: NCI-H460 lung
# SNB-19 CNS = test system: SNB-19 CNS
# NCI/ADR-RES ovarian = test system: NCI/ADR-RES ovarian
# NCI-H522 lung = test system: NCI-H522 lung
# SF-268 CNS = test system: SF-268 CNS
# HOP-62 NSCLC = test system: HOP-62 NSCLC
structure (smiles),measurement,setting,value
Oc1cccc(-c2nc3cc(F)ccc3s2)c1,TGI,CCRF-CEM leukemia,73.8 µM
same,TGI,SK-MEL-28 melanoma,50.3 µM
same,TGI,OVCAR-8 ovarian,51.2 µM
same,TGI,MDA-MB-435,58.5 µM
same,TGI,SR leukemia,47.8 µM
same,TGI,OVCAR-5 ovarian,52.9 µM
same,TGI,KM12 colon,34.6 µM
same,TGI,HT29 colon,31.7 µM
same,TGI,UO-31 renal,52.5 µM
same,TGI,A549 NSCLC,88.5 µM
same,TGI,SK-OV-3 ovarian,70 µM
same,TGI,786-0 renal,39 µM
same,TGI,PC-3 prostate,65 µM
same,TGI,NCI-H460 lung,55.4 µM
same,TGI,SNB-19 CNS,99 µM
same,TGI,NCI/ADR-RES ovarian,54.3 µM
same,TGI,NCI-H522 lung,25.7 µM
same,TGI,SF-268 CNS,65.6 µM
C=C(Cl)C(C)(Cl)CCC(Br)C(C)(C)Cl (stereo not drawn),TGI,CCRF-CEM leukemia,67.2 µM
same,TGI,SK-MEL-28 melanoma,48.1 µM
same,TGI,MDA-MB-435,39.9 µM
same,TGI,SR leukemia,93.6 µM
same,TGI,OVCAR-5 ovarian,47.7 µM
same,TGI,KM12 colon,42.9 µM
same,TGI,HT29 colon,29.5 µM
same,TGI,UO-31 renal,29.3 µM
same,TGI,HOP-62 NSCLC,53.4 µM
same,TGI,A549 NSCLC,> 100 µM
same,TGI,SK-OV-3 ovarian,39.2 µM
same,TGI,786-0 renal,31.3 µM
same,TGI,PC-3 prostate,> 100 µM
same,TGI,NCI-H460 lung,71.9 µM
same,TGI,SNB-19 CNS,> 100 µM
same,TGI,NCI/ADR-RES ovarian,92.1 µM
same,TGI,NCI-H522 lung,23.5 µM
same,TGI,SF-268 CNS,> 100 µM
Nc1ccc(S2(c3ccc(N)cc3)C=C(c3ccccc3)C(c3ccccc3)=C2)cc1,TGI,CCRF-CEM leukemia,> 100 µM
same,TGI,SK-MEL-28 melanoma,> 100 µM
same,TGI,OVCAR-8 ovarian,98.4 µM
same,TGI,MDA-MB-435,> 71.3 µM
same,TGI,SR leukemia,> 100 µM
same,TGI,OVCAR-5 ovarian,> 100 µM
same,TGI,KM12 colon,> 100 µM
same,TGI,HT29 colon,> 100 µM
same,TGI,UO-31 renal,> 90.5 µM
same,TGI,HOP-62 NSCLC,> 100 µM
same,TGI,A549 NSCLC,> 100 µM
same,TGI,SK-OV-3 ovarian,> 59.7 µM
same,TGI,786-0 renal,> 72.1 µM
same,TGI,PC-3 prostate,> 100 µM
same,TGI,NCI-H460 lung,> 100 µM
same,TGI,SNB-19 CNS,> 100 µM
same,TGI,NCI/ADR-RES ovarian,> 100 µM
same,TGI,SF-268 CNS,> 100 µM
C#C[C@]1(O)CC[C@H]2[C@@H]3CCC4=C/C(=N/OC(=O)c5cccc6c(=O)c7ccccc7[nH]c56)CC[C@@H]4[C@H]3CC[C@@]21C,TGI,CCRF-CEM leukemia,39.1 µM
same,TGI,SK-MEL-28 melanoma,> 100 µM
same,TGI,OVCAR-8 ovarian,> 100 µM
same,TGI,MDA-MB-435,> 100 µM
same,TGI,SR leukemia,33.2 µM
same,TGI,OVCAR-5 ovarian,> 100 µM
same,TGI,KM12 colon,> 100 µM
same,TGI,HT29 colon,> 100 µM
same,TGI,UO-31 renal,> 100 µM
same,TGI,HOP-62 NSCLC,> 100 µM
same,TGI,A549 NSCLC,> 100 µM
same,TGI,SK-OV-3 ovarian,> 100 µM
same,TGI,786-0 renal,> 100 µM
same,TGI,PC-3 prostate,> 100 µM
same,TGI,NCI-H460 lung,> 100 µM
same,TGI,SNB-19 CNS,> 100 µM
same,TGI,NCI/ADR-RES ovarian,> 100 µM
same,TGI,NCI-H522 lung,84.1 µM
same,TGI,SF-268 CNS,> 100 µM
COc1ccc2c(cnc3c4cc(OC)c(OC)cc4ccc23)c1,TGI,CCRF-CEM leukemia,> 100 µM
same,TGI,SK-MEL-28 melanoma,> 100 µM
same,TGI,OVCAR-8 ovarian,> 100 µM
same,TGI,MDA-MB-435,> 100 µM
same,TGI,SR leukemia,> 100 µM
same,TGI,OVCAR-5 ovarian,> 100 µM
same,TGI,KM12 colon,> 100 µM
same,TGI,HT29 colon,> 100 µM
same,TGI,UO-31 renal,> 100 µM
same,TGI,HOP-62 NSCLC,> 100 µM
same,TGI,A549 NSCLC,> 100 µM
same,TGI,SK-OV-3 ovarian,> 100 µM
same,TGI,786-0 renal,> 100 µM
same,TGI,PC-3 prostate,> 100 µM
same,TGI,NCI-H460 lung,> 100 µM
same,TGI,SNB-19 CNS,> 100 µM
same,TGI,NCI/ADR-RES ovarian,> 100 µM
same,TGI,NCI-H522 lung,> 100 µM
same,TGI,SF-268 CNS,> 100 µM
Nc1nc(Cl)cc(NCC2(CO)CCCC2)n1,TGI,CCRF-CEM leukemia,> 100 µM
same,TGI,SK-MEL-28 melanoma,> 100 µM
same,TGI,OVCAR-8 ovarian,> 100 µM
same,TGI,MDA-MB-435,> 100 µM
same,TGI,SR leukemia,> 100 µM
same,TGI,OVCAR-5 ovarian,> 100 µM
same,TGI,KM12 colon,> 100 µM
same,TGI,HT29 colon,> 100 µM
same,TGI,UO-31 renal,> 100 µM
same,TGI,HOP-62 NSCLC,> 100 µM
same,TGI,A549 NSCLC,> 100 µM
same,TGI,SK-OV-3 ovarian,> 100 µM
same,TGI,786-0 renal,> 100 µM
same,TGI,PC-3 prostate,> 100 µM
same,TGI,NCI-H460 lung,> 100 µM
same,TGI,SNB-19 CNS,> 100 µM
same,TGI,NCI/ADR-RES ovarian,> 100 µM
same,TGI,NCI-H522 lung,> 100 µM
same,TGI,SF-268 CNS,> 100 µM
O=c1oc2ccc([N+](=O)[O-])cc2c(Nc2ccc3c(c2)Oc2ccccc2O3)c1[N+](=O)[O-],TGI,CCRF-CEM leukemia,84.7 µM
same,TGI,SK-MEL-28 melanoma,> 100 µM
same,TGI,OVCAR-8 ovarian,> 100 µM
same,TGI,MDA-MB-435,> 100 µM
same,TGI,SR leukemia,72.4 µM
same,TGI,OVCAR-5 ovarian,> 100 µM
same,TGI,KM12 colon,> 100 µM
same,TGI,HT29 colon,> 100 µM
same,TGI,UO-31 renal,> 100 µM
same,TGI,HOP-62 NSCLC,> 100 µM
same,TGI,A549 NSCLC,> 100 µM
same,TGI,SK-OV-3 ovarian,> 100 µM
same,TGI,786-0 renal,67.9 µM
same,TGI,PC-3 prostate,55.4 µM
same,TGI,NCI-H460 lung,> 100 µM
same,TGI,SNB-19 CNS,> 100 µM
same,TGI,NCI/ADR-RES ovarian,> 100 µM
same,TGI,NCI-H522 lung,> 100 µM
same,TGI,SF-268 CNS,> 100 µM
CCOC(=O)NC(Nc1ccc([N+](=O)[O-])cc1)(C(F)(F)F)C(F)(F)F,TGI,CCRF-CEM leukemia,> 100 µM
same,TGI,SK-MEL-28 melanoma,> 100 µM
same,TGI,OVCAR-8 ovarian,> 100 µM
same,TGI,MDA-MB-435,49.1 µM
same,TGI,SR leukemia,> 100 µM
same,TGI,OVCAR-5 ovarian,> 100 µM
same,TGI,KM12 colon,> 100 µM
same,TGI,HT29 colon,> 100 µM
same,TGI,UO-31 renal,> 100 µM
same,TGI,HOP-62 NSCLC,> 100 µM
same,TGI,A549 NSCLC,> 100 µM
same,TGI,SK-OV-3 ovarian,> 100 µM
same,TGI,786-0 renal,> 100 µM
same,TGI,PC-3 prostate,> 100 µM
same,TGI,NCI-H460 lung,> 100 µM
same,TGI,SNB-19 CNS,> 100 µM
same,TGI,NCI/ADR-RES ovarian,> 100 µM
same,TGI,NCI-H522 lung,> 100 µM
same,TGI,SF-268 CNS,> 100 µM
CCOC(=O)C1C2CCC1CC(=NNc1ccc([N+](=O)[O-])cc1[N+](=O)[O-])C2 (stereo not drawn),TGI,CCRF-CEM leukemia,> 50 µM
same,TGI,SK-MEL-28 melanoma,> 50 µM
same,TGI,OVCAR-8 ovarian,> 50 µM
same,TGI,MDA-MB-435,> 50 µM
same,TGI,SR leukemia,> 50 µM
same,TGI,OVCAR-5 ovarian,> 50 µM
same,TGI,KM12 colon,> 50 µM
same,TGI,HT29 colon,> 50 µM
same,TGI,UO-31 renal,> 50 µM
same,TGI,HOP-62 NSCLC,> 50 µM
same,TGI,A549 NSCLC,> 50 µM
same,TGI,SK-OV-3 ovarian,> 50 µM
same,TGI,786-0 renal,> 50 µM
same,TGI,PC-3 prostate,> 50 µM
same,TGI,NCI-H460 lung,> 50 µM
same,TGI,SNB-19 CNS,> 50 µM
same,TGI,NCI/ADR-RES ovarian,> 50 µM
same,TGI,NCI-H522 lung,> 50 µM
same,TGI,SF-268 CNS,> 50 µM
C=C1CN2CC(=C)CN(C1)CS(=O)(=O)N1CC(=C)CN(CC(=C)C1)S(=O)(=O)N1CC(=C)CN(CC(=C)C1)S(=O)(=O)C2,TGI,SK-MEL-28 melanoma,45.6 µM
same,TGI,OVCAR-8 ovarian,> 100 µM
same,TGI,MDA-MB-435,> 100 µM
same,TGI,SR leukemia,> 100 µM
same,TGI,OVCAR-5 ovarian,> 100 µM
same,TGI,KM12 colon,> 100 µM
same,TGI,HT29 colon,> 100 µM
same,TGI,UO-31 renal,> 100 µM
same,TGI,HOP-62 NSCLC,53.7 µM
same,TGI,A549 NSCLC,> 100 µM
same,TGI,786-0 renal,58.9 µM
same,TGI,PC-3 prostate,38.6 µM
same,TGI,NCI-H460 lung,> 100 µM
same,TGI,SNB-19 CNS,> 100 µM
same,TGI,NCI/ADR-RES ovarian,> 100 µM
same,TGI,NCI-H522 lung,> 100 µM
same,TGI,SF-268 CNS,> 100 µM
COc1ccc2c(c1)CCN1CCc3ccccc3CC21 (stereo not drawn),TGI,CCRF-CEM leukemia,> 100 µM
same,TGI,SK-MEL-28 melanoma,98.5 µM
same,TGI,OVCAR-8 ovarian,> 100 µM
same,TGI,MDA-MB-435,> 100 µM
same,TGI,SR leukemia,> 100 µM
same,TGI,OVCAR-5 ovarian,> 100 µM
same,TGI,KM12 colon,> 100 µM
same,TGI,HT29 colon,> 100 µM
same,TGI,UO-31 renal,36 µM
same,TGI,HOP-62 NSCLC,> 100 µM
same,TGI,A549 NSCLC,> 100 µM
same,TGI,SK-OV-3 ovarian,> 100 µM
same,TGI,786-0 renal,> 100 µM
same,TGI,PC-3 prostate,> 100 µM
same,TGI,NCI-H460 lung,> 100 µM
same,TGI,SNB-19 CNS,> 100 µM
same,TGI,NCI/ADR-RES ovarian,> 100 µM
same,TGI,NCI-H522 lung,> 100 µM
same,TGI,SF-268 CNS,> 100 µM
COc1ccc(NS(=O)(=O)c2ccc(NC(NC(=O)CC(C)C)(C(F)(F)F)C(F)(F)F)cc2)nn1,TGI,CCRF-CEM leukemia,> 100 µM
same,TGI,SK-MEL-28 melanoma,> 100 µM
same,TGI,OVCAR-8 ovarian,> 100 µM
same,TGI,MDA-MB-435,> 100 µM
same,TGI,SR leukemia,> 100 µM
same,TGI,OVCAR-5 ovarian,> 100 µM
same,TGI,KM12 colon,> 100 µM
same,TGI,HT29 colon,> 100 µM
same,TGI,UO-31 renal,> 100 µM
same,TGI,HOP-62 NSCLC,> 100 µM
same,TGI,A549 NSCLC,> 100 µM
same,TGI,SK-OV-3 ovarian,> 100 µM
same,TGI,786-0 renal,> 100 µM
same,TGI,PC-3 prostate,> 100 µM
same,TGI,NCI-H460 lung,> 100 µM
same,TGI,SNB-19 CNS,> 100 µM
same,TGI,NCI/ADR-RES ovarian,> 100 µM
same,TGI,NCI-H522 lung,> 100 µM
same,TGI,SF-268 CNS,> 100 µM

# Reference: PubChem BioAssay (NCI)
